Results reported in publication PMC10790790, “Viscosity-dependent determinants of Campylobacter jejuni impacting the velocity of flagellar motility” (mBio, 2023).

Legend:
[1] = target: T1, CbrR (Campylobacter jejuni, UniProt Q0PAM5); assay: DRaCALA on nitrocellulose; format: binding; conditions: 10 mM Tris-HCl pH 8, 100 mM NaCl, 5 mM MgCl2
T1 construct: codon 2 to penultimate codon, C-terminal Myc-6xHis tag kept, pBAD/myc-HisA (pDAR6203), E. coli Top10

[2] = target: T2, WspR (Pseudomonas aeruginosa, UniProt Q9HXT9); assay: DRaCALA on nitrocellulose; format: biochemical; conditions: labelled compound ([32P]c-di-GMP made by WspR); 10 mM Tris-HCl pH 8, 100 mM NaCl, 5 mM MgCl2
T2 construct: codon 2 to penultimate codon, from pVL791, C-terminal Myc-6xHis tag kept, pBAD/myc-HisA (pDAR6535), E. coli Top10

[3] = target: T2, WspR; assay: DRaCALA on nitrocellulose; also TLC of c-di-GMP synthesis; format: biochemical; conditions: labelled compound ([alpha-32P]GTP); 10 mM Tris-HCl pH 8, 100 mM NaCl, 5 mM MgCl2 (DRaCALA); 10 mM MgCl2, room temperature (TLC)

T2 sequence (Q9HXT9 entry or part of it): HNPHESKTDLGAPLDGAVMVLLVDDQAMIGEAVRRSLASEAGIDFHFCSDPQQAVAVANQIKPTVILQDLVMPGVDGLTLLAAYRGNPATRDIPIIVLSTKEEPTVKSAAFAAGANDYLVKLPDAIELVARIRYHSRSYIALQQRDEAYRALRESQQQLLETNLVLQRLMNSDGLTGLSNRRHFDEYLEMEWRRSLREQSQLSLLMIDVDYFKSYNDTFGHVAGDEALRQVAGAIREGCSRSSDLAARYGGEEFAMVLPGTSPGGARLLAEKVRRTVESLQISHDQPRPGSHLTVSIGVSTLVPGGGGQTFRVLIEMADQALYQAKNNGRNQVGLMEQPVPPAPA
T1 sequence (Q0PAM5 entry or part of it): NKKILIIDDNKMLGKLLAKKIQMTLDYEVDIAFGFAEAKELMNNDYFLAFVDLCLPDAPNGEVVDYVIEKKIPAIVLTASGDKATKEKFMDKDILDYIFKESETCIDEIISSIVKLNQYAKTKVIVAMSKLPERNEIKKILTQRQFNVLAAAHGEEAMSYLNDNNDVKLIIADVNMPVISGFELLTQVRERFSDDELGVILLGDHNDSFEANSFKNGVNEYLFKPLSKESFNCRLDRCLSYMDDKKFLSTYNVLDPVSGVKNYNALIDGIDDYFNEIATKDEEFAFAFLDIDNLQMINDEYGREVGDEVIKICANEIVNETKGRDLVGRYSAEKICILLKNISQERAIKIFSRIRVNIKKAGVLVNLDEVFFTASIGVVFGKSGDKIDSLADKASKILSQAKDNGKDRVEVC

Structure (SMILES)	DRaCALA on nitrocellulose ([1]; labelled compound ([32P]c-di-GMP made by WspR))	DRaCALA on nitrocellulose [2]	DRaCALA on nitrocellulose ([1]; labelled compound ([alpha-32P]GTP))	DRaCALA on nitrocellulose; also TLC of c-di-GMP synthesis [3]
Nc1nc2c(ncn2[C@@H]2O[C@@H]3COP(=O)(O)O[C@H]4[C@@H](O)[C@H](n5cnc6c(=O)[nH]c(N)nc65)O[C@@H]4COP(=O)(O)O[C@H]3[C@H]2O)c(=O)[nH]1 [c-di-GMP]	recombinant WspR and CbrR bound both GTP and c-di-GMP, but VidA and VidB did not	recombinant WspR and CbrR bound both GTP and c-di-GMP, but VidA and VidB did not	–	–
Nc1nc2c(ncn2[C@@H]2O[C@H](COP(=O)(O)OP(=O)(O)OP(=O)(O)O)[C@@H](O)[C@H]2O)c(=O)[nH]1 [GTP]	–	–	recombinant WspR and CbrR bound both GTP and c-di-GMP, but VidA and VidB did not	recombinant WspR and CbrR bound both GTP and c-di-GMP, but VidA and VidB did not
